Data taken from US20210395248A1, “INHIBITORS OF HUMAN IMMUNODEFICIENCY VIRUS REPLICATION” (ViiV HEALTHCARE UK (NO.5) LIMITED, priority 2018, published 2021).
Read-outs that look alike come from different tables or passages of the source.

Columns and labels:
[1] = Compound cytotoxicity, XTT-based colorimetric assay; format: cell-based; conditions: human
Procedure: Compound cytotoxicity and the corresponding CC50 values were determined using the same protocol as described in the antiviral assay except that uninfected cells were used. Cytotoxicity was assessed on day 4 in uninfected MT2 cells by using a XTT (2,3-bis [2-Methoxy-4-nitro-5-sulfophenyl]-2H-tetrazolium-5-carboxyanilide inner salt)-based colorimetric assay (Sigma-Aldrich, St Louis, Mo.).

[2] = tested on: recombinant NL4-3 virus (Renilla luciferase reporter) in MT-2 cells; experiment: HIV cell culture assay (antiviral activity, luciferase readout in infected MT-2 cells); format: cell-based; conditions: NL43
Procedure: HIV cell culture assay—MT-2 cells, 293T cells and the proviral DNA clone of NL4-3 virus were obtained from the NIH AIDS Research and Reference Reagent Program. MT-2 cells were propagated in RPMI 1640 media supplemented with 10% heat inactivated fetal bovine serum (FBS), […]. The 293T cells were propagated in DMEM media supplemented with 10% heat inactivated FBS, […]. A recombinant NL4-3 proviral clone, in which a section of the nef gene was replaced with the Renilla luciferase gene, was used to make the reference virus used in these studies. The recombinant virus was prepared through transfection of the recombinant NL4-3 proviral clone into 293T cells using Transit-293 Transfection Reagent from Mirus Bio LLC (Madison, Wis.). Supernatent was harvested after 2-3 days and the amount of virus present was titered in MT-2 cells using luciferase enzyme activity as a marker by measuring luciferase enzyme activity. Luciferase was quantitated using the EnduRen Live Cell Substrate from Promega (Madison, Wis.). Antiviral activities of compounds toward the recombinant virus were quantified by measuring luciferase activity in MT-2 cells infected for 4-5 days with the recombinant virus in the presence of serial dilutions of the compound.
The 50% effective concentration (EC50) was calculated by using the exponential form of the median effect equation where (Fa)=1/[1+(EC50/drug conc.)m] (Johnson V A, Byington RT. Infectivity Assay. In Techniques in HIV Research, ed. Aldovini A, Walker B D. 71-76. New York: Stockton Press. 1990). The 50% inhibitory concentration (EC50) was calculated by using the exponential form of the median effect equation where percent inhibition=1/[1+(EC50/drug concentration)m], where m is a parameter that reflects the slope of the concentration-response curve.

[3] = uninfected MT2 cells, day 4, XTT, read-out: CC50

Row | Compound | CC50 at 4 days [1, 3] | EC50 [2] | CC50 at 4 days [1]
1 | C[C@@H]1CN(c2ccc3c(=O)n(-c4ccc(Cl)c5c(NS(C)(=O)=O)nn(C)c45)c([C@H](Cc4cc(F)cc(F)c4)NC(=O)Cn4nc(C(F)(F)F)c5c4C(F)(F)[C@@H]4C[C@H]54)nc3n2)C[C@H](C)O1 (atropisomer, axis not shown; (aR)) [Example 2, N—((S)-1-(3-(4-chloro-1-methyl-3-(methylsulfonamido)-1H-indazol-7-yl)-7-((2S,6R)-2,6-dimethylmorpholino)-4-oxo-3,4-dihydropyrido[2,3-d]pyrimidin-2-yl)-2-(3,5-difluorophenyl)ethyl)-2-((3bS,4aR)-5,5-difluoro-3-(trifluoromethyl)-3b,4,4a,5-tetrahydro-1H-cyclopropa[3,4]cyclopenta[1,2-c]pyrazol-1-yl)acetamide] | > 500 nM | 0.036 nM | 
2 | C[C@@H]1CN(c2ccc3c(=O)n(-c4ccc(Cl)c5c(NS(C)(=O)=O)nn(CC(F)F)c45)c([C@H](Cc4cc(F)cc(F)c4)NC(=O)Cn4nc(C(F)F)c5c4C(F)(F)[C@@H]4C[C@H]54)nc3n2)C[C@H](C)O1 (atropisomer, axis not shown; (aR)) [Example 3, N—((S)-1-(3-(4-chloro-1-(2,2-difluoroethyl)-3-(methylsulfonamido)-1H-indazol-7-yl)-7-((2S,6R)-2,6-dimethylmorpholino)-4-oxo-3,4-dihydropyrido[2,3-d]pyrimidin-2-yl)-2-(3,5-difluorophenyl)ethyl)-2-((3bS,4aR)-3-(difluoromethyl)-5,5-difluoro-3b,4,4a,5-tetrahydro-1H-cyclopropa[3,4]cyclopenta[1,2-c]pyrazol-1-yl)acetamide] | > 500 nM | 0.032 nM | 
3 | C[C@@H]1CN(c2ccc3c(=O)n(-c4ccc(Cl)c5c(NS(C)(=O)=O)nn(CC(F)F)c45)c([C@H](Cc4cc(F)cc(F)c4)NC(=O)Cn4nc(C(F)(F)F)c5c4C(F)(F)[C@@H]4C[C@H]54)nc3n2)C[C@H](C)O1 (atropisomer, axis not shown; (aR)) [Example 4, N—((S)-1-(3-(4-chloro-1-(2,2-difluoroethyl)-3-(methylsulfonamido)-1H-indazol-7-yl)-7-((2S,6R)-2,6-dimethylmorpholino)-4-oxo-3,4-dihydropyrido[2,3-d]pyrimidin-2-yl)-2-(3,5-difluorophenyl)ethyl)-2-((3bS,4aR)-5,5-difluoro-3-(trifluoromethyl)-3b,4,4a,5-tetrahydro-1H-cyclopropa[3,4]cyclopenta[1,2-c]pyrazol-1-yl)acetamide] | > 500 nM | 0.031 nM | 
4 | C[C@@H]1CN(c2ccc3c(=O)n(-c4ccc(Cl)c5c(NS(=O)(=O)C6CC6)nn(CC(F)F)c45)c([C@H](Cc4cc(F)cc(F)c4)NC(=O)Cn4nc(C(F)F)c5c4C(F)(F)[C@@H]4C[C@H]54)nc3n2)C[C@H](C)O1 (atropisomer, axis not shown; (aR)) [Example 5, N—((S)-1-(3-(4-chloro-3-(cyclopropanesulfonamido)-1-(2,2-difluoroethyl)-1H-indazol-7-yl)-7-((2S,6R)-2,6-dimethylmorpholino)-4-oxo-3,4-dihydropyrido[2,3-d]pyrimidin-2-yl)-2-(3,5-difluorophenyl)ethyl)-2-((3bS,4aR)-3-(difluoromethyl)-5,5-difluoro-3b,4,4a,5-tetrahydro-1H-cyclopropa[3,4]cyclopenta[1,2-c]pyrazol-1-yl)acetamide] | > 500 nM | 0.03 nM | 
5 | C[C@@H]1CN(c2ccc3c(=O)n(-c4ccc(Cl)c5c(NS(=O)(=O)C6CC6)nn(CC(F)F)c45)c([C@H](Cc4cc(F)cc(F)c4)NC(=O)Cn4nc(C(F)(F)F)c5c4C(F)(F)[C@@H]4C[C@H]54)nc3n2)C[C@H](C)O1 (atropisomer, axis not shown; (aR)) [Example 6, N—((S)-1-(3-(4-chloro-3-(cyclopropanesulfonamido)-1-(2,2-difluoroethyl)-1H-indazol-7-yl)-7-((2S,6R)-2,6-dimethylmorpholino)-4-oxo-3,4-dihydropyrido[2,3-d]pyrimidin-2-yl)-2-(3,5-difluorophenyl)ethyl)-2-((3bS,4aR)-5,5-difluoro-3-(trifluoromethyl)-3b,4,4a,5-tetrahydro-1H-cyclopropa[3,4]cyclopenta[1,2-c]pyrazol-1-yl)acetamide] | > 500 nM | 0.04 nM | 
6 | C[C@@H]1CN(c2ccc3c(=O)n(-c4ccc(Cl)c5c(NS(C)(=O)=O)nn(CC(F)(F)F)c45)c([C@H](Cc4cc(F)cc(F)c4)NC(=O)Cn4nc(C(F)F)c5c4C(F)(F)[C@@H]4C[C@H]54)nc3n2)C[C@H](C)O1 (atropisomer, axis not shown; (aR)) [Example 7, N—((S)-1-(3-(4-chloro-3-(methylsulfonamido)-1-(2,2,2-trifluoroethyl)-1H-indazol-7-yl)-7-((2S,6R)-2,6-dimethylmorpholino)-4-oxo-3,4-dihydropyrido[2,3-d]pyrimidin-2-yl)-2-(3,5-difluorophenyl)ethyl)-2-((3bS,4aR)-3-(difluoromethyl)-5,5-difluoro-3b,4,4a,5-tetrahydro-1H-cyclopropa[3,4]cyclopenta[1,2-c]pyrazol-1-yl)acetamide] | > 500 nM | 0.028 nM | 
7 | C[C@@H]1CN(c2ccc3c(=O)n(-c4ccc(Cl)c5c(NS(C)(=O)=O)nn(CC(F)(F)F)c45)c([C@H](Cc4cc(F)cc(F)c4)NC(=O)Cn4nc(C(F)(F)F)c5c4C(F)(F)[C@@H]4C[C@H]54)nc3n2)C[C@H](C)O1 (atropisomer, axis not shown; (aR)) [Example 8, N—((S)-1-(3-(4-chloro-3-(methylsulfonamido)-1-(2,2,2-trifluoroethyl)-1H-indazol-7-yl)-7-((2S,6R)-2,6-dimethylmorpholino)-4-oxo-3,4-dihydropyrido[2,3-d]pyrimidin-2-yl)-2-(3,5-difluorophenyl)ethyl)-2-((3bS,4aR)-5,5-difluoro-3-(trifluoromethyl)-3b,4,4a,5-tetrahydro-1H-cyclopropa[3,4]cyclopenta[1,2-c]pyrazol-1-yl)acetamide] | > 500 nM | 0.032 nM | 
8 | CC(F)CCNc1ccc2c(=O)n(-c3ccc(Cl)c4c(NS(C)(=O)=O)nn(C)c34)c([C@H](Cc3cc(F)cc(F)c3)NC(=O)Cn3nc(C(F)F)c4c3C(F)(F)[C@@H]3C[C@H]43)nc2n1 (stereo partly drawn) [Example 9, N-((1S)-1-((3P)-3-(4-chloro-1-methyl-3-(methylsulfonamido)-1H-indazol-7-yl)-7-((3-fluorobutyl)amino)-4-oxo-3,4-dihydropyrido[2,3-d]pyrimidin-2-yl)-2-(3,5-difluorophenyl)ethyl)-2-((3bS,4aR)-3-(difluoromethyl)-5,5-difluoro-3b,4,4a,5-tetrahydro-1H-cyclopropa[3,4]cyclopenta[1,2-c]pyrazol-1-yl)acetamide] | > 100 nM | 0.046 nM | 
9 | CCN(CCC(F)(F)F)c1ccc2c(=O)n(-c3ccc(Cl)c4c(NS(C)(=O)=O)nn(C)c34)c([C@H](Cc3cc(F)cc(F)c3)NC(=O)Cn3nc(C(F)F)c4c3C(F)(F)[C@@H]3C[C@H]43)nc2n1 [Example 10, N—((S)-1-((3P)-3-(4-chloro-1-methyl-3-(methylsulfonamido)-1H-indazol-7-yl)-7-(ethyl(3,3,3-trifluoropropyl)amino)-4-oxo-3,4-dihydropyrido[2,3-d]pyrimidin-2-yl)-2-(3,5-difluorophenyl)ethyl)-2-((3bS,4aR)-3-(difluoromethyl)-5,5-difluoro-3b,4,4a,5-tetrahydro-1H-cyclopropa[3,4]cyclopenta[1,2-c]pyrazol-1-yl)acetamide] | > 100 nM | 0.037 nM | 
10 | Cn1nc(NS(C)(=O)=O)c2c(Cl)ccc(-n3c([C@H](Cc4cc(F)cc(F)c4)NC(=O)Cn4nc(C(F)F)c5c4C(F)(F)[C@@H]4C[C@H]54)nc4nc(N5C6CCC5COC6)ccc4c3=O)c21 [Example 20, N-((1S)-1-(7-(3-oxa-8-azabicyclo[3.2.1]octan-8-yl)-(3P)-3-(4-chloro-1-methyl-3-(methylsulfonamido)-1H-indazol-7-yl)-4-oxo-3,4-dihydropyrido[2,3-d]pyrimidin-2-yl)-2-(3,5-difluorophenyl)ethyl)-2-((3bS,4aR)-3-(difluoromethyl)-5,5-difluoro-3b,4,4a,5-tetrahydro-1H-cyclopropa[3,4]cyclopenta[1,2-c]pyrazol-1-yl)acetamide] |  | 0.05 nM | > 100 nM
